The results in this text go back to ChEMBL document CHEMBL1201862, “PubChem BioAssay data set” (2004).

Assay [1] is described as follows: SNU-C1 cell viability reduction, dose response, CellTiter-Glo luminescence (AID 1117323). It is filed as functional, cell-based. (In general: In ATP-based viability assays light output follows the ATP content of the culture.)
In a further assay the target is T1, Streptokinase A (Streptococcus pyogenes serotype M1, UniProt P10520).
T1 sequence (P10520 whole entry): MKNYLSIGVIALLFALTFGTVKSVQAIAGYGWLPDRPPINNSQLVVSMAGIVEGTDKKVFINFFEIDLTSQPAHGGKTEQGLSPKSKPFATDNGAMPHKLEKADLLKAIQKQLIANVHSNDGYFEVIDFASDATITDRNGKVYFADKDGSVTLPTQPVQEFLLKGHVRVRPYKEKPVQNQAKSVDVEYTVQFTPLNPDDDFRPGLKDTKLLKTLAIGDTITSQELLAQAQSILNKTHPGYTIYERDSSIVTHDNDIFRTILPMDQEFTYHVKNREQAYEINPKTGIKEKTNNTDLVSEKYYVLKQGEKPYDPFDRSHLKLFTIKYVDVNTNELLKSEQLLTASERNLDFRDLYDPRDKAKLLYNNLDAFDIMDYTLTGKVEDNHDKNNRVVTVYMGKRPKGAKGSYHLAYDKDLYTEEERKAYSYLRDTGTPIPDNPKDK
As to the kind of experiment: viability-normalized secreted streptokinase activity reduction – plasminogen activation absorbance, OD405, dose response (AID 1914).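 Note: secreted streptokinase activity via plasminogen activation per viability signal from cell pellet.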 Format: functional, Streptococcus pyogenes M1 GAS.

Assay [2] in a line: Potency on glucagon-like peptide 1 release, dose-response in NCI-H716 cell line, half maximal inhibitory concentration (AID 1117344). Format: functional, cell-based.
The nature of assay [3]: RKO cell viability reduction, dose response, CellTiter-Glo luminescence (AID 1117322). It is filed as functional.
The target in assay [4] is T2, DNA repair protein RAD52 homolog (Homo sapiens, UniProt P43351).
T2 sequence (P43351 whole entry): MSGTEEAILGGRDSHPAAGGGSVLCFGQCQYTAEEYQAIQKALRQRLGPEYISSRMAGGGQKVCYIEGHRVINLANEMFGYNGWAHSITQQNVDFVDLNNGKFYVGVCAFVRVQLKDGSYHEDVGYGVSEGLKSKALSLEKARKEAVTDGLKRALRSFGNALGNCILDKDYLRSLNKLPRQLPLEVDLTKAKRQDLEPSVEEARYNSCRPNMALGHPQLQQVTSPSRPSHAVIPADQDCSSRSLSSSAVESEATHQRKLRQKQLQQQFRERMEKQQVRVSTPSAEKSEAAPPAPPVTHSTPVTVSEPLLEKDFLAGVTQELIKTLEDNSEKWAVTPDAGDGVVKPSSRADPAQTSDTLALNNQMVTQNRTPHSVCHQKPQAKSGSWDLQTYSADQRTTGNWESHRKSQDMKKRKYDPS
It is filed as functional, biochemical.

Assay [5] concerns the target T3, Replicative DNA helicase DnaB (Mycobacterium tuberculosis, UniProt P9WMR3).
T3 sequence (P9WMR3 whole entry): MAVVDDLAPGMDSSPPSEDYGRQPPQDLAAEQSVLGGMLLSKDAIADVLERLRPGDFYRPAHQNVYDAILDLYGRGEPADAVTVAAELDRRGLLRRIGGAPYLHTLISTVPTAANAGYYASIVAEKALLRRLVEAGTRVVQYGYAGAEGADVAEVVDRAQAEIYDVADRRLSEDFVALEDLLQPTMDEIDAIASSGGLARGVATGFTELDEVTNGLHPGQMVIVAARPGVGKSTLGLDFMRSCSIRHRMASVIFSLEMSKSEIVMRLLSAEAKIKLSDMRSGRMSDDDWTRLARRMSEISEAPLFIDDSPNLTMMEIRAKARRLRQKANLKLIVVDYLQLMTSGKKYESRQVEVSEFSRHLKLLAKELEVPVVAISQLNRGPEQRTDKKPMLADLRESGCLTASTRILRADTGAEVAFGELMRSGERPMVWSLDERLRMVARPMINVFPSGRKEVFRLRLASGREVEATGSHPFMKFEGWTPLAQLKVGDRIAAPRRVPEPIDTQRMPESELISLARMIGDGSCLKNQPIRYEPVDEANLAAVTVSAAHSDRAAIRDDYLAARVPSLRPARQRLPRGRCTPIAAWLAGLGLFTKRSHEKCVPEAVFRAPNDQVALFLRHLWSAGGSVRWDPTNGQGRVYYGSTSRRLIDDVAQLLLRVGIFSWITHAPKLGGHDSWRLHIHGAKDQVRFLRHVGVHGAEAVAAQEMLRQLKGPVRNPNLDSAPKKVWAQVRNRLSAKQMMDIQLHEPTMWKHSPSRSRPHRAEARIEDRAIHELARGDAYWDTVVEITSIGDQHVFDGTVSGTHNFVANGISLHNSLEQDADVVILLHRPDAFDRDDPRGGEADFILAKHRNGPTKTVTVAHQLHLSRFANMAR
As to the kind of experiment: DnaB intein splicing inhibitors, dose response, biochemical, cell-free fluorescence (AID 449749). It is filed as functional.

The subject of the next assay is INS1. Description: INS-1E survival protection against cytokine death – cell-based, luminescence, retest, dose response (AID 449756).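 Note: cell death triggered by IL-1 beta plus TNF-alpha plus IFN-gamma mixture; protective hits raise ATP signal compared with cytokine alone wells.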 Format: functional. The note with it: Rattus norvegicus.
The next assay has as its target Oxytocin receptor (Homo sapiens, UniProt P30559). Description: Fluorescence-based cell-based high throughput dose response assay for agonists of the Oxytocin Receptor (OXTR). [Related pubchem assays: 2435 (Primary screen (OXTR agonists in singlicate)), 434991 (Counterscreen (V1R agonists in triplicate)), 2482 (Summary (OXTR agonists)), 434963 (Confirmation screen (OXTR agonists in triplicate))]. It is filed as functional. A general note: The purpose of a counterscreen is to sort out artefacts and off-target activity.

The target in assay [6] is Heat shock protein HSP 90-alpha (Homo sapiens, UniProt P07900). Format: functional, organism-based.
The nature of assay [7]: microbe, parasite or virus in culture. It is filed as functional. The note with it: Mycobacterium tuberculosis.
For assay [8], the system named is Streptococcus sp. 'group A'. Description: Streptococcus pyogenes SK(-)GAS viability under kanamycin – luminescence, BacTiterGlo, confirmation, counter-screen for streptokinase expression inhibitor project, dose response (AID 1900). It is filed as functional, organism-based.
The target in another assay is Vasopressin V1a receptor (Homo sapiens, UniProt P37288). As to the kind of experiment: Counterscreen for Oxytocin Receptor (OXTR) agonists: Fluorescence-based cell-based high throughput dose response assay to identify agonists of the vasopressin 1 receptor (V1R). [Related pubchem assays: 2435 (Primary screen (OXTR agonists in singlicate)), 434991 (Counterscreen (V1R agonists in triplicate)), 2482 (Summary (OXTR agonists)) …. It is filed as functional.
Chain of Vasopressin V1a receptor (P37288 whole entry): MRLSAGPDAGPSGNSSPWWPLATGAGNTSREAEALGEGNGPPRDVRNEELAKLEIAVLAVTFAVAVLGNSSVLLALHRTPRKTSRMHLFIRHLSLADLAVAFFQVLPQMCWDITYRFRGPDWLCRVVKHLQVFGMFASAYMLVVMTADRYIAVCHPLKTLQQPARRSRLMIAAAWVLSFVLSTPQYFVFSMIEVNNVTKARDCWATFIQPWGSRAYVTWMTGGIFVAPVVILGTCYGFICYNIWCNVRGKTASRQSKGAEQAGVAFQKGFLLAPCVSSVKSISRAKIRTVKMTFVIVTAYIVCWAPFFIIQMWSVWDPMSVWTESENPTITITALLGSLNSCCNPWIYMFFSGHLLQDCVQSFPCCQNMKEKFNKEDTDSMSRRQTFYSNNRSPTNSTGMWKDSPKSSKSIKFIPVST

Assay [9] is described as follows: cytotoxicity toward HCT116 cells – cell-based, CellTiter-Glo luminescence, IC50, dose response (AID 1117332). It is filed as functional. The note with it: HCT-116.
The next assay relates to Vero. Description: viability of Vero cells under compound – cytotoxicity control for flavivirus capping enzyme inhibitors (AID 588742). It is filed as functional. The note with it: Chlorocebus sabaeus.
The nature of assay [10]: CellTiter-Glo luminescence survival assay, SW480 colon tumor line, concentration-response curve, half-maximal inhibitory concentration (AID 1117338). Format: functional.
Assay [11] in a line: cytotoxicity toward HT-29 cells – cell-based, CellTiter-Glo luminescence, IC50, dose response (AID 1117330). It is filed as functional.
For another assay, the system named is Streptococcus. As to the kind of experiment: GAS UMAA2166 growth inhibition – luminescence, BacTiterGlo, counter-screen for streptokinase expression inhibitor project, dose response (AID 1915).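 Note: potency for reduction of bacterial viability or growth.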 It is filed as functional, organism-based.
Assay [12] in a line: cytotoxicity toward Colo320 cells – cell-based, CellTiter-Glo luminescence, IC50, dose response (AID 1117334). It is filed as functional. The note with it: COLO 320.
A further assay addresses T4, Protein RecA (Mycobacterium tuberculosis, UniProt P9WHJ3).
T4 sequence (P9WHJ3 whole entry): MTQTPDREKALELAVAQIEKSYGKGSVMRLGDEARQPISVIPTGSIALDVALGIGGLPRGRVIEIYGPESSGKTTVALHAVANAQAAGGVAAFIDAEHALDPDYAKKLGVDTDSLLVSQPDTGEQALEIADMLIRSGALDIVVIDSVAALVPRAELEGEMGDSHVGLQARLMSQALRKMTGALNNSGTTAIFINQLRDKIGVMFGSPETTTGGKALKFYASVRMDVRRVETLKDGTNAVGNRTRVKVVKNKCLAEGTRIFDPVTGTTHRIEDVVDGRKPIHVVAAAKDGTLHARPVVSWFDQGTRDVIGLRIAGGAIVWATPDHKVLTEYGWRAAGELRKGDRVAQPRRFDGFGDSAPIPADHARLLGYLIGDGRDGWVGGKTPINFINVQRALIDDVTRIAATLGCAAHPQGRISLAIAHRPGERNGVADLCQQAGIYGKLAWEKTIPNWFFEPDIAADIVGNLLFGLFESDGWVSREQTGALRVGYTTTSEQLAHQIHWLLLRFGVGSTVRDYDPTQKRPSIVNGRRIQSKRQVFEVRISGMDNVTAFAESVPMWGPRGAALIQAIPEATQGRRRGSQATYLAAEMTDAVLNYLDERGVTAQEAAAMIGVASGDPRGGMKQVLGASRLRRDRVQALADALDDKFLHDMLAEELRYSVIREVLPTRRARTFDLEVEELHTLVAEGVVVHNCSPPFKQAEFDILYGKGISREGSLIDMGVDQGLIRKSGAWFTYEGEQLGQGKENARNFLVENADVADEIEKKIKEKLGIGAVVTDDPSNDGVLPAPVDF
As to the kind of experiment: Fluorescence Cell-Free Homogeneous Dose Retest to Identify Inhibitors of RecA-Intein Splicing Activity. [Related pubchem assays (depositor defined):AID2097, AID2223, AID489010, AID492950]. Format: functional.

The nature of assay [13]: HCT116 cell viability decrease, GSK3B pretreatment – CellTiter-Glo, IC50, dose response (AID 1117339). Format: functional. The following applies: HCT-116.
The nature of assay [14]: glucagon-like peptide-1 release potency in STC-1, concentration-response, half-maximal inhibitory concentration in the STC-1 line (AID 1117345). It is filed as functional, cell-based.
Assay [15] is described as follows: Reduced DLD-1 viability, concentration-response, CellTiter-Glo luminescence (AID 1117352). It is filed as functional.
Assay [16] concerns the target Serine/threonine-protein phosphatase (Homo sapiens, UniProt Q9BPW0). As to the kind of experiment: Counterscreen for inhibitors of PP1: fluorescence-based biochemical high throughput dose response assay to identify inhibitors of Protein Phosphatase 5 (PP5). [Related pubchem assays: 2034 (Summary (PP5 inhibitors)), 1987 (PP5 inhibitors in singlate), 2235 (PP1 inhibitors in singlate)].

Assay [17] concerns the target Serine/threonine-protein phosphatase PP1-alpha catalytic subunit (Homo sapiens, UniProt P62136). As to the kind of experiment: inhibition of protein phosphatase 1 activity – biochemical, fluorescence, dose response (AID 2403).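 Note: phosphatase turnover of OMFP into fluorescent 3-O-methylfluorescein.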
Assay [18] in a line: NIH3T3 cell viability loss – ATP luminescence, mouse fibroblasts, counter-screen, dose response (AID 2010).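 Note: cells exposed to compound for about 90 hours before reading.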 It is filed as functional, cell-based.
Assay [19] in a line: Trypanosoma cruzi growth suppression in host cells – NIH3T3 host cells, beta-gal luminescence, confirmation (AID 2044).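 Note: intracellular parasites grown in NIH/3T3 mouse fibroblasts as host cells; luminescent beta-galactosidase reporter signal from transgenic T. cruzi replicating inside host cells; inhibitors lower the luminescence signal.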 It is filed as functional, cell-based.

Calls of active or inactive are those of the source. A value given as a limit tells only on which side of the number the result lay.

Chain of Serine/threonine-protein phosphatase (Q9BPW0 whole entry): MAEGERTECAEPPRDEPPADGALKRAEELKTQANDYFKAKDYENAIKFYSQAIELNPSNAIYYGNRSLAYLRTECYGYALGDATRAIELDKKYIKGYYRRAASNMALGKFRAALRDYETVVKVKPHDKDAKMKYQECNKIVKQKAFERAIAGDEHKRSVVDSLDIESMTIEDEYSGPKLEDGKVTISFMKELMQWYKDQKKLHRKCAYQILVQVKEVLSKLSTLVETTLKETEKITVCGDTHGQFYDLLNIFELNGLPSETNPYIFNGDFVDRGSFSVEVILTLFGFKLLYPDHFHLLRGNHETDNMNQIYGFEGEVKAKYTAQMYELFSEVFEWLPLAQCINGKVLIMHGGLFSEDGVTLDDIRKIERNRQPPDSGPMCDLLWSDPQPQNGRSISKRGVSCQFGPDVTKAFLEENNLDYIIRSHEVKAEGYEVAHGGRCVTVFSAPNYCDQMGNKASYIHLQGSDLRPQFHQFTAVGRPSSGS
Chain of Oxytocin receptor (P30559 whole entry): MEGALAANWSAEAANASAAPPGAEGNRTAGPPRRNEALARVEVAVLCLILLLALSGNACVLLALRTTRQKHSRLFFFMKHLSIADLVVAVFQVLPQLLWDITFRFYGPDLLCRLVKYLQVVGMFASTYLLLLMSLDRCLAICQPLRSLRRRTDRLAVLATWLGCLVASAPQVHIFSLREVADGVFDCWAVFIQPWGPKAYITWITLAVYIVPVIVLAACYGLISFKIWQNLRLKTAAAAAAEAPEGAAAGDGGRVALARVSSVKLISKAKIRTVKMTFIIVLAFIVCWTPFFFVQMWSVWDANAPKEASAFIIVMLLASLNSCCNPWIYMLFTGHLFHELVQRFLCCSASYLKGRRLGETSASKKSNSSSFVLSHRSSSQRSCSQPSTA
Chain of Serine/threonine-protein phosphatase PP1-alpha catalytic subunit (P62136 whole entry): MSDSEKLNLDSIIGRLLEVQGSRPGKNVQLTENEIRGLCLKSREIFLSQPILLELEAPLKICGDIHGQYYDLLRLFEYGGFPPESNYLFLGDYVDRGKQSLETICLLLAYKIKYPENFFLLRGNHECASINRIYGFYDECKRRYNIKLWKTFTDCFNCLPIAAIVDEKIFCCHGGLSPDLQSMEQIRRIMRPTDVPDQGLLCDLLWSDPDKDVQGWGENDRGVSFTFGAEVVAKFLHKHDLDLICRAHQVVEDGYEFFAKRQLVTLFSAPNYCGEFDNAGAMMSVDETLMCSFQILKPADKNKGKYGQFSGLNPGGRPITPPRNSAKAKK

The term IC50 denotes the concentration that inhibits the measured activity by half. One may read the EC50 as the concentration at which the effect is half-maximal. The term AC50 denotes the midpoint of the concentration-response curve, whichever way the signal moves. In the case of `CCCCCCCCCCCCCCCC[N+](C)(C)CC`, the half-inhibitory concentration (IC50) in assay [1] is 0.004 µM (active); in assay [2], 11.7 µM (inactive); in assay [3], 0.931 µM (active); in assay [9] it was 3.16 µM (active); in assay [10], 1.24 µM (active); in assay [11], 0.409 µM (active). In addition, the 50% inhibitory concentration (IC50) is 0.0372 µM (active) in assay [12], 2.68 µM (active) in [13], > 40 µM (inactive) in [14] and 0.74 µM (active) in assay [15]. For the same compound, the concentration for a half-maximal effect (EC50) at Streptokinase A is 23.2 µM (inconclusive); on Oxytocin receptor it was > 29.9 µM (not active); in [8], 1.3 µM (active); on Vasopressin V1a receptor, > 3.32 µM (active); in the assay with Streptococcus it was 8.57 µM (active); at Protein RecA, 13.2 µM (active). The half-maximal activity concentration (AC50) is 8.98 µM (active) in assay [4], 4.56 µM (active) in assay [5], 2.97 µM (active) with INS1 and 1.16 µM (active) in assay [6]. Further, the CC50 was 34.8 µM (active) in [7] and 32.7 µM (active) in the assay with Vero.
In the case of `COc1cnc(-c2ccccn2)nc1Sc1ccccc1`, the concentration for half-maximal inhibition (IC50) in [16] is > 67 µM (not active); in assay [17], 7.03 µM (active). Besides, the half-maximal effective concentration (EC50) in [18] was > 60 µM (not active); in assay [19], 2.47 µM (active).
